According to publication PMC9615537 (Journal of Pharmaceutical Analysis, 2022):

Experiment: Metabolic identification of PEP06 in vitro, all matrices together
Format: in vitro ADME
Settings: semi-quantitative, Table S3

For RGDRGDMHSHRDFQPVLH [M6], the “Relative abundance of metabolite (peak area vs parent)” value was “most abundant metabolite”.
